Laboratory results taken from ChEMBL document CHEMBL1201862, “PubChem BioAssay data set” (2004).
Active and inactive are the calls of the source.

Tests used:
[1] = target: T1, Sentrin-specific protease 7 (Homo sapiens, UniProt Q9BQF6); assay type: functional;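 further: Luminescence-based dose-response confirmation of ultra-high-throughput screening hits, measuring inhibition of SENP7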
T1 sequence (Q9BQF6 whole entry): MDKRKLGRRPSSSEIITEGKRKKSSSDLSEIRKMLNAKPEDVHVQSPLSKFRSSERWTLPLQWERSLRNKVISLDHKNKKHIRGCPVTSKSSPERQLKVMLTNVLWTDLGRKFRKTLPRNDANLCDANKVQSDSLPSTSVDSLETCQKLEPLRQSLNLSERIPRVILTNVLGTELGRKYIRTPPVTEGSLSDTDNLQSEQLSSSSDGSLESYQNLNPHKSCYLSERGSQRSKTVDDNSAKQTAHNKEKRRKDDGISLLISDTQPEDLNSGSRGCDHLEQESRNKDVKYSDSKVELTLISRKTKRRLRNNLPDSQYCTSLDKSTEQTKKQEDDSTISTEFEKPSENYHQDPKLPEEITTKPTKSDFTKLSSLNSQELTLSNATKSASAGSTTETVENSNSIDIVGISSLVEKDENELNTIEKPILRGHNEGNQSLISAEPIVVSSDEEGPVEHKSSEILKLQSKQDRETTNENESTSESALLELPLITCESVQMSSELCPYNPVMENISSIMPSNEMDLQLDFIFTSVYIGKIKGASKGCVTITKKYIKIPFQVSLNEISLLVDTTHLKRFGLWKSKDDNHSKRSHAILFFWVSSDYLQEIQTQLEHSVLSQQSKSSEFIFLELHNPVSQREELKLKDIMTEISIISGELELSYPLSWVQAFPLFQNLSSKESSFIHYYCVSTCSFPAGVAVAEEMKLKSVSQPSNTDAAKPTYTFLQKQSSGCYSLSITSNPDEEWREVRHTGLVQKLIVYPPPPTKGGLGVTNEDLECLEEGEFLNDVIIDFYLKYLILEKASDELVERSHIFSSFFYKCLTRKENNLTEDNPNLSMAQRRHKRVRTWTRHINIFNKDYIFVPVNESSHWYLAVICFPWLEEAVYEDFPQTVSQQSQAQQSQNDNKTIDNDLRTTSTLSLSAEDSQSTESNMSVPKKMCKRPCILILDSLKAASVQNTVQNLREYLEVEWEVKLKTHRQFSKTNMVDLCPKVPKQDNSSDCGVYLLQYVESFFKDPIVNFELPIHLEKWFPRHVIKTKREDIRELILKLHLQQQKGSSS

[2] = target: Voltage-dependent T-type calcium channel subunit alpha-1H (Homo sapiens, UniProt O95180); assay type: functional;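 further: channel activity triggered by adding a high calcium stimulation buffer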
[3] = target: T2, Sentrin-specific protease 8 (Homo sapiens, UniProt Q96LD8); assay: inhibition of human SENP8 cleavage activity – biochemical, luminescence, SAR follow-up (AID 504501); assay type: functional
T2 sequence (Q96LD8 whole entry): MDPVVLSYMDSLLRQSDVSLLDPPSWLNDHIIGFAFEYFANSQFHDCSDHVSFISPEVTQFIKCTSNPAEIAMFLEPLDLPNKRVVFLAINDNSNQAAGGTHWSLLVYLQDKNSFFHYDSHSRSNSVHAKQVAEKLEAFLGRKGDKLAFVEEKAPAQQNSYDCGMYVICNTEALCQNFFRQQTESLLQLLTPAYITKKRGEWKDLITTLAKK

Caspase-3 [4] = target: T3, Caspase-3 (Homo sapiens, UniProt P42574); assay type: functional
T3 sequence (P42574 whole entry): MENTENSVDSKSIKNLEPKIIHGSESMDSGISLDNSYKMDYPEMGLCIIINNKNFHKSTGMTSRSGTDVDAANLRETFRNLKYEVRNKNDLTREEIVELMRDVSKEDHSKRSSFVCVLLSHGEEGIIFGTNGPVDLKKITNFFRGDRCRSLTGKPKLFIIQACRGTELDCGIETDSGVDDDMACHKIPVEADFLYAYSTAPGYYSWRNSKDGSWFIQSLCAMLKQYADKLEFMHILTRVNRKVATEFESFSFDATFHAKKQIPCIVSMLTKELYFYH

[5] = target: T4, Sentrin-specific protease 6 (Homo sapiens, UniProt Q9GZR1); assay: SAR Analysis of small molecule inhibitors of Sentrin-specific protease 6 (SENP6) using a Luminescent assay. [Related pubchem assays (depositor defined):AID2582, AID2599]; assay type: functional
T4 sequence (Q9GZR1 whole entry): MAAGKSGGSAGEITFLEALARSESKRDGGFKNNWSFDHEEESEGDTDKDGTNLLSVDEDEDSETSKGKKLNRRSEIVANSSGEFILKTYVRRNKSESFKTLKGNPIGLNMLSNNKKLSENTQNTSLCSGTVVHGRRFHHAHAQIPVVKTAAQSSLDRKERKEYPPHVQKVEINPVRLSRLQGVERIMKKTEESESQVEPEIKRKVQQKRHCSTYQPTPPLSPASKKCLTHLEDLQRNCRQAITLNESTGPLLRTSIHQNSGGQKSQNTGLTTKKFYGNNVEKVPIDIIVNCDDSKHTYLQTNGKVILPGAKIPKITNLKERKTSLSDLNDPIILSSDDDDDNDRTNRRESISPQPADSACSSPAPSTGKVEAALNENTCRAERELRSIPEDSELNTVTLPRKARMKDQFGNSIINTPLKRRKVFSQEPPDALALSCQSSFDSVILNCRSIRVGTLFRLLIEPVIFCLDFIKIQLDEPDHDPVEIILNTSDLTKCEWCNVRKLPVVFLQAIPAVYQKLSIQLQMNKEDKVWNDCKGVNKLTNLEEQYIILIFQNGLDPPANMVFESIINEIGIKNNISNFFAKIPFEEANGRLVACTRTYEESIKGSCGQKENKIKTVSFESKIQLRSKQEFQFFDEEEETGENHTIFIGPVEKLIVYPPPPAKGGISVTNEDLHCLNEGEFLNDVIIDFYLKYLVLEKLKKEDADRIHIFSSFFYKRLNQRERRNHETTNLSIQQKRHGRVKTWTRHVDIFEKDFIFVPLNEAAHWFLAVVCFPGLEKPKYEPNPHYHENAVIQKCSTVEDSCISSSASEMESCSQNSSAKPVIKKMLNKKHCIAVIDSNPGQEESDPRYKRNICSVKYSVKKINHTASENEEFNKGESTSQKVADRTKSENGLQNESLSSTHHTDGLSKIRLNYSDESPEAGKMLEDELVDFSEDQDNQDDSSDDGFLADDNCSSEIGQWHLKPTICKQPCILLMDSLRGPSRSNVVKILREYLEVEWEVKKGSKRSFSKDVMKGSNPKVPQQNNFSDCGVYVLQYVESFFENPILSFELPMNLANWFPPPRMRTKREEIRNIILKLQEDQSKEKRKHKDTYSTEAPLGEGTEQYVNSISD

[6] = target: T1, Sentrin-specific protease 7; assay: inhibition of human SENP7 cleavage activity – biochemical, luminescence, SAR follow-up (AID 504497); assay type: functional
[7] = target: T2, Sentrin-specific protease 8; assay type: functional
Caspase-3 [8] = target: T3, Caspase-3; assay: SAR Analysis of small molecule inhibitors of Sentrin-specific proteases (SENPs) using a Caspase-3 Selectivity assay. [Related pubchem assays (depositor defined):AID2540, AID2599, AID434973, AID489001]; assay type: functional
[9] = target: T4, Sentrin-specific protease 6; assay type: functional
[10] = target: ATP-dependent molecular chaperone HSP82 (Candida albicans (strain WO-1) (Yeast), UniProt C4YTQ8); assay: steroid-induced GRE reporter decrease in yeast – S. cerevisiae, luminescence, Hsp90 inhibitor project, dose response (AID 2400); assay type: functional, cell-based;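 further: beta-galactosidase luminescence from glucocorticoid response element reporter as proxy for Hsp90 function; inhibitor potency where signal loss means Hsp90 inhibition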
[11] = target: T5, High affinity choline transporter 1 (Homo sapiens, UniProt Q9GZV3); assay: human choline transporter blockers, potency – cell-based, 5-point CRC, membrane potential dye, dose response (AID 504840); assay type: functional
T5 sequence (Q9GZV3 whole entry): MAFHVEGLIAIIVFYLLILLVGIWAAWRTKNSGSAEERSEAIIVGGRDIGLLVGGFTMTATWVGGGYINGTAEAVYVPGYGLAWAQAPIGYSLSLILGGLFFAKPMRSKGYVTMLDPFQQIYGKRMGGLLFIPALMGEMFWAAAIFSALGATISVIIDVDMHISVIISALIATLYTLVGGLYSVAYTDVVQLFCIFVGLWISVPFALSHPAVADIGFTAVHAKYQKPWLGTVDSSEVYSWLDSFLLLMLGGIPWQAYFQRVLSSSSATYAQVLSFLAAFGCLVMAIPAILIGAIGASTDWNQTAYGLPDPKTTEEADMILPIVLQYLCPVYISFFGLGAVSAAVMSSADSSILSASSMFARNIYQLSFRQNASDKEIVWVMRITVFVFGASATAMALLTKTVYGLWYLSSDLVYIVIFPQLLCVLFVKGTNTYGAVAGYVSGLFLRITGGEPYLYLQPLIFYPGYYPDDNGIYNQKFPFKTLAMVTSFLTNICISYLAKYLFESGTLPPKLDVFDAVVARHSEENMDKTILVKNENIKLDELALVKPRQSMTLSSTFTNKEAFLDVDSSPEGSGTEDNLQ

[12] = target: T6, Serine/threonine-protein phosphatase (Candida dubliniensis (strain CD36 / CBS 7987 / NCPF 3949 / NRRLY-17841) (Yeast), UniProt B9W6M3); assay: blockers of CaCl2-induced CDRE-lacZ signaling – S. cerevisiae, luminescence, secondary, dose response (AID 2388); assay type: functional, cell-based;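 further: yeast reporter cells carrying a calcineurin-responsive lacZ construct stimulated with calcium chloride; luminescent beta-galactosidase reporter signal in whole cells rather than isolated phosphatase activity; potency for inhibition where a drop in reporter signal means calcineurin blockade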
T6 sequence (B9W6M3 whole entry): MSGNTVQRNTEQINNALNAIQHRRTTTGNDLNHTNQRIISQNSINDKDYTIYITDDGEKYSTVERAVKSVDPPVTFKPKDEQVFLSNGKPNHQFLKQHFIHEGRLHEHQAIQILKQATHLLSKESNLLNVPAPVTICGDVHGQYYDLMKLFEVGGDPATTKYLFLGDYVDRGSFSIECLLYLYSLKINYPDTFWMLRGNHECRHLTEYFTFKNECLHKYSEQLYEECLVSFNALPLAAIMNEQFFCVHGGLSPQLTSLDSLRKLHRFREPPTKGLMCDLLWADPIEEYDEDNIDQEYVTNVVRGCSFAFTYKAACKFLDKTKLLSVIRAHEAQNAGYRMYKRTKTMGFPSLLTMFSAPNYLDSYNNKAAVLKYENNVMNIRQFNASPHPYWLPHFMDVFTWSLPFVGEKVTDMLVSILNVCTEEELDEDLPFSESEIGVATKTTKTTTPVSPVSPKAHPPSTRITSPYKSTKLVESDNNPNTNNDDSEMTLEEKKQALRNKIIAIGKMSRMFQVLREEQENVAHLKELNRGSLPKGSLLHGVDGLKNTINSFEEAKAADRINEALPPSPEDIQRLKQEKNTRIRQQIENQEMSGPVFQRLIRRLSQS

[13] = NIH-3T3 fibroblast cytotoxicity, dose response, cytotoxicity control, cell-based, fluorescence, Alamar Blue, secondary assay (AID 2327); assay type: functional;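 further: NIH-3T3 mouse fibroblasts cultured with fluconazole at 8 µg/mL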
[14] = fluconazole-exposed Candida albicans growth modulators – fluorescence, retest, confirmation (AID 2467); assay type: functional, cell-based
[15] = luciferase reporter signal suppression in cells – H4 neuroglioma cells, luminescence, dose response (AID 1990); assay type: functional, cell-based
[16] = Luminescence Cell-Based Dose Response HTS to Identify Inhibitors of 5'UTR Stem-Loop Driven Prion Protein mRNA Translation in H4 Neuroglioblastoma Cells. [Related pubchem assays: 1827 (Project Summary), 1813 (Primary HTS)]; assay type: functional
[17] = alpha-synuclein stem-loop luciferase translation blockers – H4 neuroglioma cells, luminescence, confirmation (AID 1988); assay type: functional, cell-based
[18] = HepG2 cell cytotoxicity, dose response, cytotoxicity control for non-replicating M. tuberculosis project (AID 489018); assay type: functional; conditions: Mycobacterium tuberculosis
[19] = test system: Streptococcus sp. 'group A'; assay: Streptococcus pyogenes SK(-)GAS viability under kanamycin – luminescence, BacTiterGlo, confirmation, counter-screen for streptokinase expression inhibitor project, dose response (AID 1900); assay type: functional, organism-based
[20] = THP-1 cell cytotoxicity, dose response, cytotoxicity control for non-replicating M. tuberculosis project (AID 489025); assay type: functional
[21] = Vero E6 cell cytotoxicity, dose response, cytotoxicity control for non-replicating M. tuberculosis project, secondary assay (AID 492998); assay type: functional, VeroE6; conditions: Vero C1008
cells = assay type: functional
Streptococcus = assay: GAS UMAA2166 growth inhibition – luminescence, BacTiterGlo, counter-screen for streptokinase expression inhibitor project, dose response (AID 1915); assay type: functional, organism-based;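 further: potency for reduction of bacterial viability or growth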
Beta-galactosidase = Beta-galactosidase (Escherichia coli, UniProt Q8VNN2); assay: PubChem AID 485352; assay type: functional
[22] = target: Type-1 angiotensin II receptor (Homo sapiens, UniProt P30556); assay: antagonism of angiotensin II type 1 receptor – cell-based, uHTS hits, selectivity assay for APJ receptor antagonist project, dose response (AID 463214); assay type: functional;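 further: antagonist potency against angiotensin II stimulated AT1 response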
Chain of Type-1 angiotensin II receptor (P30556 whole entry): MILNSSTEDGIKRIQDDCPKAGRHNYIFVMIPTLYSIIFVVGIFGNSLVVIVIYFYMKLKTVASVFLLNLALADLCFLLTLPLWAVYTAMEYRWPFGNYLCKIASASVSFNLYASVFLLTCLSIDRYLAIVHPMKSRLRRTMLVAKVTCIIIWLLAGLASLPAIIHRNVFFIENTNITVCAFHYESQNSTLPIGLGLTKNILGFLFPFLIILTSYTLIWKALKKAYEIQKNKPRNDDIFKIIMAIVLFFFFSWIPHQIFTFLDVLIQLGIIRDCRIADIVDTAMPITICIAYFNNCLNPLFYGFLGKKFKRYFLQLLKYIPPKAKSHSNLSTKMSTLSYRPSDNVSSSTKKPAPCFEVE

Chain of ATP-dependent molecular chaperone HSP82 (C4YTQ8 whole entry): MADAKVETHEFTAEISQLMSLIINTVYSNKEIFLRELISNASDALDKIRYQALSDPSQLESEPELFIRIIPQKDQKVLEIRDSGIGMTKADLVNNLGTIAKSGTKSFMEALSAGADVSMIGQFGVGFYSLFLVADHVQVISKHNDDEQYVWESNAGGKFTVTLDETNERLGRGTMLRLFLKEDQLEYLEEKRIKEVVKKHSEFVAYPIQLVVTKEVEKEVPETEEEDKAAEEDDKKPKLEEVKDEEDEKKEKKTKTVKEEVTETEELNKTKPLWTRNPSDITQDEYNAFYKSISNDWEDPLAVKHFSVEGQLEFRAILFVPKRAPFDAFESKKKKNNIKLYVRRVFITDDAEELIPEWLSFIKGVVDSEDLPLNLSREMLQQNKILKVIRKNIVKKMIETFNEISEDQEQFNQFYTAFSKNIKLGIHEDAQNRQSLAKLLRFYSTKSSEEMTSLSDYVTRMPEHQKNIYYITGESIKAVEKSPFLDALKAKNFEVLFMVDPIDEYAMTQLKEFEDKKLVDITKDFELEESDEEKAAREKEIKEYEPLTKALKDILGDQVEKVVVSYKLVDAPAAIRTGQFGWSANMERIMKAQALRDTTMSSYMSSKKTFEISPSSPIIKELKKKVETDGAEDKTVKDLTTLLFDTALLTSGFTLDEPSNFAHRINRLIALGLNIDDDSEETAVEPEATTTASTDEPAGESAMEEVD
Chain of Beta-galactosidase (Q8VNN2 whole entry): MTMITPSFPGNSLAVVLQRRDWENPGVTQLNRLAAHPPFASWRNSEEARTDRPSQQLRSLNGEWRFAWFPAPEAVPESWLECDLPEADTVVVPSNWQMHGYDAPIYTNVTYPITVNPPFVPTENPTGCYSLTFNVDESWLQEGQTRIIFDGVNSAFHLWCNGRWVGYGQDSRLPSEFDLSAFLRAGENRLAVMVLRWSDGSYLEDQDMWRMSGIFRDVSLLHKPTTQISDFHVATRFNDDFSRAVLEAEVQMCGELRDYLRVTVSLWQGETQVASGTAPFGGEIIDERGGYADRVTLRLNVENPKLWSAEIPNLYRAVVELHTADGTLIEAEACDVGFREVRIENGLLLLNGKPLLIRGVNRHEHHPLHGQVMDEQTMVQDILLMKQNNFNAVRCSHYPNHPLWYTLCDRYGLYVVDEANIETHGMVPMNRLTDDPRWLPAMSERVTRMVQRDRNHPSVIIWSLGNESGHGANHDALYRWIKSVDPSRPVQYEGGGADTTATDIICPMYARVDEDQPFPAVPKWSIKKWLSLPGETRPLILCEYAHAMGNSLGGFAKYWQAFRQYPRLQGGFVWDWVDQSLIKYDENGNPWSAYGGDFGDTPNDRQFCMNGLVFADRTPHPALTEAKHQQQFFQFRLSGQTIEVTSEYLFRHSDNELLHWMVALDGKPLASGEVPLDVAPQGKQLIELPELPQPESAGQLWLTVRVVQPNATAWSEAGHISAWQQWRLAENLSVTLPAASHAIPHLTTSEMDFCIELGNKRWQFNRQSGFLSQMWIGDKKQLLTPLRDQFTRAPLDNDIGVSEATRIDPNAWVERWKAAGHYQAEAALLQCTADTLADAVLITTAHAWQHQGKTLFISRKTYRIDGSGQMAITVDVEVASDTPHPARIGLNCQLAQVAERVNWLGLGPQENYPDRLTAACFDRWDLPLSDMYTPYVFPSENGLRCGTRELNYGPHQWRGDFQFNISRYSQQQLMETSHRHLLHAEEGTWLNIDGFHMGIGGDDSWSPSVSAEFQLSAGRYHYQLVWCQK
Chain of Voltage-dependent T-type calcium channel subunit alpha-1H (O95180 whole entry): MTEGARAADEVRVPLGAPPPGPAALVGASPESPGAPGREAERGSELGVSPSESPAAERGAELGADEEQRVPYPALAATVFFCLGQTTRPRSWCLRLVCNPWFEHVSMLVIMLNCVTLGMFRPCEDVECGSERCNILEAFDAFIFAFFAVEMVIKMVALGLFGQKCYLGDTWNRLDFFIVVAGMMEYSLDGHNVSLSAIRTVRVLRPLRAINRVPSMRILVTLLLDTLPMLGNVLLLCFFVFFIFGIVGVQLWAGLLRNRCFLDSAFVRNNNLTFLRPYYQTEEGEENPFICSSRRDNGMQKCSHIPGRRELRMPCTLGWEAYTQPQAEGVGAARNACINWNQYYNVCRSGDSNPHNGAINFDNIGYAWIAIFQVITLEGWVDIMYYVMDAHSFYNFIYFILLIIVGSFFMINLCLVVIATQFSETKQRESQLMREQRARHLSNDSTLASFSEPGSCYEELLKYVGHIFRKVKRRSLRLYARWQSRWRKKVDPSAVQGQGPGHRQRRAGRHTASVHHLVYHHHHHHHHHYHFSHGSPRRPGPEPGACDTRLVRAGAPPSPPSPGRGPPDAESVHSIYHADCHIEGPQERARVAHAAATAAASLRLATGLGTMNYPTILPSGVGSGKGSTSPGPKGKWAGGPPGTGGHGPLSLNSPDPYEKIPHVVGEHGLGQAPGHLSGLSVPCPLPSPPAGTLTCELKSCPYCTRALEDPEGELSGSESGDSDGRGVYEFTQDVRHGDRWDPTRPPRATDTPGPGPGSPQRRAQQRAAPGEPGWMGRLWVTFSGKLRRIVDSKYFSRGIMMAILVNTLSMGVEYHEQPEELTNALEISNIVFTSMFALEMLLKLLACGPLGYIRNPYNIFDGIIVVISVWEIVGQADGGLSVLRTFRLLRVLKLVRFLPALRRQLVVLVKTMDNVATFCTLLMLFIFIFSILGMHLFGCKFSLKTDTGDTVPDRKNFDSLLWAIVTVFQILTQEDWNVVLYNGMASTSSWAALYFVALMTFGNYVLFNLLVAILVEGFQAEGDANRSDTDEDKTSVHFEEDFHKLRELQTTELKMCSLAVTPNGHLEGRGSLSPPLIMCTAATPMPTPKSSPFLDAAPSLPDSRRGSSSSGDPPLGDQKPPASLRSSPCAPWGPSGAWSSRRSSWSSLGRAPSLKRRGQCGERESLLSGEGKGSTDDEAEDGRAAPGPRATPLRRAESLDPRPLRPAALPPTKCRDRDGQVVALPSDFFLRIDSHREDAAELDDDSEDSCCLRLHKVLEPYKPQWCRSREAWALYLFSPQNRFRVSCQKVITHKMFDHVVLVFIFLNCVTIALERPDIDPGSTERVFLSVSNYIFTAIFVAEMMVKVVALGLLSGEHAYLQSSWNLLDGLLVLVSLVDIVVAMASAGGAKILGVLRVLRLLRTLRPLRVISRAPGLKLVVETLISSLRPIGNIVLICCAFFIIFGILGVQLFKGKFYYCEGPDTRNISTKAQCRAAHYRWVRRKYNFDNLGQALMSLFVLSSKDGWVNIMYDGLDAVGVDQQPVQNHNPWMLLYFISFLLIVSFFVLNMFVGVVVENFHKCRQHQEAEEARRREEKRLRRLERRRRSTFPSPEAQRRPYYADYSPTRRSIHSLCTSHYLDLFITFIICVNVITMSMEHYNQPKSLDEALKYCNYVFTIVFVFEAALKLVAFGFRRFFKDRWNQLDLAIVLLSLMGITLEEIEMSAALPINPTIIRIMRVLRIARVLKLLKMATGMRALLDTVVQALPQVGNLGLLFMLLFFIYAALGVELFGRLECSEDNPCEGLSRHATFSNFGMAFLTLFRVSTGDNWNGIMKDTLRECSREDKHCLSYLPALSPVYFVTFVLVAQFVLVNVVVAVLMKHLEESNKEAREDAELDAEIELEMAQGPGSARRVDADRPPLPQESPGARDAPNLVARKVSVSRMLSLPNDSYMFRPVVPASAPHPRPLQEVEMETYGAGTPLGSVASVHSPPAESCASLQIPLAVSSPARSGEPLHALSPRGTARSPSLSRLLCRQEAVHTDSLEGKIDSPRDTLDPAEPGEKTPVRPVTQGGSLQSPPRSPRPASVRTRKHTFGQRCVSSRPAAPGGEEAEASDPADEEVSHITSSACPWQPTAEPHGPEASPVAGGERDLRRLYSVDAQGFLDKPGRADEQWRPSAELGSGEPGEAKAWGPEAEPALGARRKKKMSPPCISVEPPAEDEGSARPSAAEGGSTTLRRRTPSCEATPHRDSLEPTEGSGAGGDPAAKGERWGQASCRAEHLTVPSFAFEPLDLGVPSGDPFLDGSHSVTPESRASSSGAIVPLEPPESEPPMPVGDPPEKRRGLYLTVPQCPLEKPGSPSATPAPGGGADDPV

Cc1ccc2nc(-c3cccnc3SCC(=O)N3c4ccccc4CC3C)[nH]c2c1 (centres undefined)
inactive: IC50 [9] > 100 µM
active: IC50 [1] 2.9 µM | EC50 [2] 11.2 µM | IC50 [3] 6.28 µM | IC50 (Caspase-3 [4]) 4.22 µM | IC50 [5] 5.76 µM | IC50 [6] 5.66 µM | IC50 [7] 1.56 µM | IC50 (Caspase-3 [8]) 5.3 µM

Cc1ccccc1C(=O)O/N=C/c1c(N2CCOCC2)n(C)c2ccccc12
inactive: EC50 [12] > 180 µM | EC50 [13] > 160 µM
active: EC50 [10] 23.7 µM | IC50 [11] 21.6 µM | EC50 [14] 0.212 µM | EC50 [15] 0.455 µM | EC50 [16] 11.8 µM | EC50 [17] 4.88 µM

O=C(Nc1nnc(C2COc3ccccc3O2)o1)c1ccc(F)cc1 (centres undefined)
active: CC50 [18] 19.9 µM | EC50 [19] 0.98 µM | CC50 [20] 15.7 µM | CC50 [21] 11.4 µM | EC50 [14] 0.968 µM | IC50 (cells) 1.49 µM | EC50 (Streptococcus) 11.4 µM
inactive: EC50 [10] > 150 µM | EC50 [12] > 180 µM
inconclusive: EC50 [13] 25.4 µM

O=C(NNc1ncc(C(F)(F)F)cc1Cl)c1c(Cl)cccc1Cl
> 40 µM (not active): IC50 [22]
inactive: EC50 (Beta-galactosidase) > 40 µM
